Data as given in patent publication US20250282799A1, “SUBSTITUTED PYRIDO[4,3-d]PYRIMIDINES AS KRAS MODULATORS” (Alterome Therapeutics, Inc., priority 2023, published 2025).

Tested on: KRAS G12V dependent lung adenocarcinoma cell line, NCI-H441
Assay: Cellular pERK (Thr202/Tyr204) FRET/HTRF assay
Format: cell-based
Summary of the method: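 Phospho-ERK1/2 (Thr202/Tyr204) quantified by two-antibody HTRF in lysed NCI-H441 cells. Cells seeded overnight, treated with test compounds for 1 hr at 37 °C against DMSO control, then lysed and detected at room temperature; IC50 obtained by curve fitting.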

[1] = Homo sapiens, NCI-H441, cellular pERK (Thr202/Tyr204) HTRF, NCI-H441 cells
[2] = Homo sapiens, NCI-H441, pERK HTRF, NCI-H441 cells (KRAS G12V)

Row | SMILES | IC50 [1] | IC50 [2] | further results
1 | [2H]C([2H])(Oc1nc(N2CCOC[C@H]3[C@H](F)[C@H]32)c2cc(Cl)c(-c3cc(N)cc(C)c3C(F)(F)F)c(F)c2n1)[C@@]12CCCN1C[C@H](F)C2 [Example 179, 3-(6-chloro-8-fluoro-4-((1S,7S,8S)-8-fluoro-5-oxa-2-azabicyclo[5.1.0]octan-2-yl)-2-(((2R,7aS)-2-fluorotetrahydro-1H-pyrrolizin-7a(5H)-yl)methoxy-d2)quinazolin-7-yl)-5-methyl-4-(trifluoromethyl)aniline] | 500 to 10000 nM |  | 
2 | [2H]C([2H])(Oc1nc(N2CCOC[C@@H]3[C@H](F)[C@@H]32)c2cnc(-c3cc(N)cc4cc(F)c(F)c(C#C)c34)c(F)c2n1)[C@@]12CCCN1C[C@H](F)C2 [Example 29, 5-Ethynyl-6,7-difluoro-4-(8-fluoro-4-((1R,7R,8S)-8-fluoro-5-oxa-2-azabicyclo[5.1.0]octan-2-yl)-2-(((2R,7aS)-2-fluorotetrahydro-1H-pyrrolizin-7a(5H)-yl)methoxy-d2)pyrido[4,3-d]pyrimidin-7-yl)naphthalen-2-amine] |  | 50 to 500 nM | 
3 | [2H]C([2H])(Oc1nc(N2CCCC[C@H]3[C@H](F)[C@H]32)c2cnc(-c3cncc4cc(F)c(F)c(OC)c34)c(F)c2n1)[C@@]12CCCN1C[C@H](F)C2 [Example 83, 7-(6,7-Difluoro-5-methoxyisoquinolin-4-yl)-8-fluoro-4-((1S,7R,8S)-8-fluoro-2-azabicyclo[5.1.0]octan-2-yl)-2-(((2R,7aS)-2-fluorotetrahydro-1H-pyrrolizin-7a(5H)-yl)methoxy-d2)pyrido[4,3-d]pyrimidine] |  | 50 to 500 nM | 
4 | [2H]C([2H])([2H])Oc1c(F)ccc2cncc(-c3ncc4c(N5CCOC[C@H]6[C@H](F)[C@H]65)nc(OC([2H])([2H])[C@@]56CCCN5C[C@H](F)C6)nc4c3F)c12 [Example 84, (1S,7S,8S)-8-Fluoro-2-(8-fluoro-7-(6-fluoro-5-(methoxy-d3)isoquinolin-4-yl)-2-(((2R,7aS)-2-fluorotetrahydro-1H-pyrrolizin-7a(5H)-yl)methoxy-d2)pyrido[4,3-d]pyrimidin-4-yl)-5-oxa-2-azabicyclo[5.1.0]octane] |  |  | IC50 (Homo sapiens, pERK HTRF, NCI-H441 cells (KRAS G12V)): < 50 nM
5 | [2H]C([2H])(Oc1nc(N2CCOC[C@@H]3[C@@H](Cl)[C@@H]32)c2cc(C(F)(F)F)c(-c3ccc(F)c4sc(N)c(C#N)c34)c(F)c2n1)[C@@]12CCCN1C[C@H](F)C2 (atropisomer, axis not shown; (aS)) [Example 419, 2-amino-4-((S)-4-((1R,7R,8R)-8-chloro-5-oxa-2-azabicyclo[5.1.0]octan-2-yl)-8-fluoro-2-(((2R,7aS)-2-fluorotetrahydro-1H-pyrrolizin-7a(5H)-yl)methoxy-d2)-6-(trifluoromethyl)quinazolin-7-yl)-7-fluorobenzo[b]thiophene-3-carbonitrile] |  |  | IC50 (cellular pERK (Thr202/Tyr204) HTRF, NCI-H441 cells): 50 to 500 nM
6 | [2H]C([2H])(Oc1nc(N2CCOC[C@@H]3[C@@H](F)[C@@H]32)c2cc(Cl)c(-c3cc(N)c(F)c(C)c3C(F)(F)F)c(F)c2n1)[C@@]12CCCN1C[C@H](F)C2 [Example 191, 5-(6-chloro-8-fluoro-4-((1R,7R,8R)-8-fluoro-5-oxa-2-azabicyclo[5.1.0]octan-2-yl)-2-(((2R,7aS)-2-fluorotetrahydro-1H-pyrrolizin-7a(5H)-yl)methoxy-d2)quinazolin-7-yl)-2-fluoro-3-methyl-4-(trifluoromethyl)aniline] | 500 to 10000 nM |  | 
7 | [2H]C([2H])(F)Oc1c(F)c(F)c(F)c2cc(N)cc(-c3ncc4c(N5CCOC[C@H]6[C@H](F)[C@H]65)nc(OC([2H])([2H])[C@@]56CCCN5C[C@H](F)C6)nc4c3F)c12 [Example 128, 6,7,8-trifluoro-4-(8-fluoro-4-((1S,7S,8S)-8-fluoro-5-oxa-2-azabicyclo[5.1.0]octan-2-yl)-2-(((2R,7aS)-2-fluorotetrahydro-1H-pyrrolizin-7a(5H)-yl)methoxy-d2)pyrido[4,3-d]pyrimidin-7-yl)-5-(fluoromethoxy-d2)naphthalen-2-amine] | < 50 nM |  | 
8 | [2H]C([2H])(Oc1nc(N2CCOC[C@@H]3[C@H]2[C@@]3([2H])F)c2cnc(-c3cccc4ccc(F)c(C#C)c34)c(F)c2n1)[C@@]12CCCN1C[C@H](F)C2 [Example 118, (1S,7S,8S)-2-(7-(8-ethynyl-7-fluoronaphthalen-1-yl)-8-fluoro-2-(((2R,7aS)-2-fluorotetrahydro-1H-pyrrolizin-7a(5H)-yl)methoxy-d2)pyrido[4,3-d]pyrimidin-4-yl)-8-fluoro-5-oxa-2-azabicyclo[5.1.0]octane-8-d] | < 50 nM |  | 
9 | [2H]C([2H])(Oc1nc(N2CCOC[C@H]3[C@H](F)[C@H]32)c2cc(F)c(-c3cc(N)cc(C4CC4)c3C(F)(F)F)c(F)c2n1)[C@@]12CCCN1C[C@H](F)C2 [Example 163, 3-cyclopropyl-5-(6,8-difluoro-4-((1S,7S,8S)-8-fluoro-5-oxa-2-azabicyclo[5.1.0]octan-2-yl)-2-(((2R,7aS)-2-fluorotetrahydro-1H-pyrrolizin-7a(5H)-yl)methoxy-d2)quinazolin-7-yl)-4-(trifluoromethyl)aniline] | 500 to 10000 nM |  | 
10 | [2H]C([2H])([2H])Oc1c(F)c(F)cc2cc(N)cc(-c3ncc4c(N5CCCO[C@H]6[C@H](F)[C@H]65)nc(OC([2H])([2H])[C@@]56CCCN5C[C@H](F)C6)nc4c3F)c12 [Example 74, 6,7-Difluoro-4-(8-fluoro-4-((1R,7S,8R)-8-fluoro-2-oxa-6-azabicyclo[5.1.0]octan-6-yl)-2-(((2R,7aS)-2-fluorotetrahydro-1H-pyrrolizin-7a(5H)-yl)methoxy-d2)pyrido[4,3-d]pyrimidin-7-yl)-5-(methoxy-d3)naphthalen-2-amine] |  | < 50 nM | 
11 | [2H]C([2H])(Oc1nc(N2CCCC[C@H]3[C@H](F)[C@H]32)c2cnc(-c3cccc4ccc(F)c(C#C)c34)c(F)c2n1)[C@@]12CCCN1C[C@H](F)C2 [Example 78, 7-(8-Ethynyl-7-fluoronaphthalen-1-yl)-8-fluoro-4-((1S,7R,8S)-8-fluoro-2-azabicyclo[5.1.0]octan-2-yl)-2-(((2R,7aS)-2-fluorotetrahydro-1H-pyrrolizin-7a(5H)-yl)methoxy-d2)pyrido[4,3-d]pyrimidine] |  | < 50 nM | 
12 | [2H]C1([2H])OCCN(c2nc(OC([2H])([2H])[C@@]34CCCN3C[C@H](F)C4)nc3c(F)c(-c4cccc5ccc(F)c(C#C)c45)ncc23)[C@@H]2[C@@H](F)[C@@H]21 [Example 101, (1S,7S,8S)-2-(7-(8-ethynyl-7-fluoronaphthalen-1-yl)-8-fluoro-2-(((2R,7aS)-2-fluorotetrahydro-1H-pyrrolizin-7a(5H)-yl)methoxy-d2)pyrido[4,3-d]pyrimidin-4-yl)-8-fluoro-5-oxa-2-azabicyclo[5.1.0]octane-6,6-d2] | < 50 nM |  | 
13 | C#Cc1c(F)ccc2cc(N)cc(-c3ncc4c(N5CCOC[C@H]6[C@H](F)[C@H]65)nc(OCC5CCC6COCCN65)nc4c3F)c12 (stereo partly drawn) [Example 477, 5-ethynyl-6-fluoro-4-(8-fluoro-4-((1S,7S,8S)-8-fluoro-5-oxa-2-azabicyclo[5.1.0]octan-2-yl)-2-((hexahydro-1H-pyrrolo[2,1-c][1,4]oxazin-6-yl)methoxy)pyrido[4,3-d]pyrimidin-7-yl)naphthalen-2-amine] |  |  | IC50 (Homo sapiens, NCI-H441, cellular pERK HTRF, NCI-H441 (KRAS G12V) cells): < 50 nM
